Test results taken from patent US8507005B2, “Particulates of a CRTH2 antagonist” (Actimis Pharmaceuticals, Inc., priority 2007, dated 2013).
Values after ≈ are worked out from the molar mass of the structure shown. Read-outs that look alike come from different tables or passages of the source.

Assays:
DP1 = biological target: T1, DP1 (Homo sapiens, UniProt Q13258); test: Competitive radioligand (3H-PGD2) binding assay, DP1-transfected cells; conditions: competition with 1 nM 3H-PGD2, DP1-transfected cells, FIG. 11
T1 sequence (Q13258 1-359): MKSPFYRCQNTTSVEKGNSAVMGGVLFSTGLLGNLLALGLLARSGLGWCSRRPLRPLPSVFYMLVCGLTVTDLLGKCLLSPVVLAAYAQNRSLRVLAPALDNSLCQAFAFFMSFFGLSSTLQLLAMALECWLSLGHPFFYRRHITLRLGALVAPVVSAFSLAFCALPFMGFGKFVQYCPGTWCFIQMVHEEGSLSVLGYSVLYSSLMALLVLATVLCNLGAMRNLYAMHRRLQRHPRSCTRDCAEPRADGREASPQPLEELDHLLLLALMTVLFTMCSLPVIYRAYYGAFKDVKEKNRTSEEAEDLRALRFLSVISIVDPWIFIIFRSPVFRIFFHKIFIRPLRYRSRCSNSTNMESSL
Procedure: The binding affinity and selectivity of the amine salts of 4,6-bis(dimethylamino)-2-(4-(4-(trifluoromethyl)benzamido)benzyl)pyrimidin-5-yl}acetic acid provided herein were evaluated using a competitive radioligand binding assay with stably-transfected cell lines expressing CRTH2 or DP1.
Prostaglandin D2 and 13,14-dihydro-15-keto PGD2 were obtained from Cayman Chemical (Ann Arbor, Mich.). Radiolabelled PGD2 (5,6,8,9,12,14,15-^3H(N)) with a specific activity of 160 Ci/mmol was obtained from PerkinElmer (Boston, Mass.). Cell culture medium RPMI 1640, HEPES buffer, phosphate buffered saline (PBS), L-glutamine, and penicillin-streptomycin solution were obtained from Mediatech Inc. (Herndon, Va.). Fetal calf serum (FCS) was obtained from Cambrex (Walkersville, Md.). Puromycin was obtained from Invitrogen (San Diego, Calif.). Poly(ethyleneimine) (PEI) was obtained from Acros Organics (Morris Plains, N.J.). […]
Radioligand binding analyses were performed according to the methods of Sugimoto et al. (J. Pharm. Exp. Therap. 2003, 305, 347-352; Eur. J. Pharmacol. 2005, 524, 30-37). […] Scintillant (50 μL; Microscint™ 20, Perkin Elmer, Boston, Mass.) was added to each well and the radioactivity was counted on a TopCount (Packard Bioscience, Meriden, Conn.). […]

CRTH2 = biological target: T2, CRTH2 (Homo sapiens, UniProt Q9Y5Y4); test: Competitive radioligand (3H-PGD2) binding assay, CRTH2-transfected cells; conditions: competition with 1 nM 3H-PGD2, CRTH2-transfected cells, FIG. 10
T2 construct: expressed in transfected cells
T2 sequence (Q9Y5Y4 1-395): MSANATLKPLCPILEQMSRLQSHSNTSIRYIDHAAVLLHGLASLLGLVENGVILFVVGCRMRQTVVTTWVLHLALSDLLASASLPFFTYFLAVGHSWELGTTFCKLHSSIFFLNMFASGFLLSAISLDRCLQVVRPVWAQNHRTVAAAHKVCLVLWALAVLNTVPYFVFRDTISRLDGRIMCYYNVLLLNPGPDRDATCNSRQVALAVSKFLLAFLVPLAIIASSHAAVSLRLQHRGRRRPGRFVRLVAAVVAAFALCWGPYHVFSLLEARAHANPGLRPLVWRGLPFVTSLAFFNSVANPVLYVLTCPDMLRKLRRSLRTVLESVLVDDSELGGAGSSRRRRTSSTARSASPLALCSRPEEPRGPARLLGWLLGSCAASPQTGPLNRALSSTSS
Excerpt: Prostaglandin D2 and 13,14-dihydro-15-keto PGD2 were obtained from Cayman Chemical (Ann Arbor, Mich.). Radiolabelled PGD2 (5,6,8,9,12,14,15-^3H(N)) with a specific activity of 160 Ci/mmol was obtained from PerkinElmer (Boston, Mass.). Cell culture medium RPMI 1640, HEPES buffer, phosphate buffered saline (PBS), L-glutamine, and penicillin-streptomycin solution were obtained from Mediatech Inc. (Herndon, Va.). Fetal calf serum (FCS) was obtained from Cambrex (Walkersville, Md.). Puromycin was obtained from Invitrogen (San Diego, Calif.). […]
The surface expression of CRTH2 on the transfected cell lines was monitored periodically during culture and prior to each competitive radioligand binding assay. […] The cells were then washed in 2 mL of FACS buffer (PBS containing 1% BSA (Fraction V) and 0.1% sodium azide. The cells were subsequently incubated on ice with a FITC-conjugated anti-rat antibody (goat anti-rat Ig-FITC). After washed with cold FACS buffer, the cells were analyzed using a FACScan II analyzer and CellQuest software, both from Becton Dickinson (Mountain View, Calif.). […]

[1] = Solubility of saturated solutions determined by HPLC; assay type: physicochemical
Procedure: Saturated solutions of {4,6-bis(dimethylamino)-2-(4-(4-(trifluoromethyl)-benzamido)benzyl)pyrimidin-5-yl}acetic acid of Formula I in the solvents listed in Table 1 were prepared from the acid predominantly in Form I, at both 25 and 50° C.

[2] = Thermogravimetric analysis (thermal stability); assay type: physicochemical; conditions: TGA, heating rate 20° C./min
Procedure: The thermogravimetric analysis was also conducted on a Mettler 850, TA 2920. Samples were placed into a ceramic or aluminum sample pan. A heating rate of 20° C./min was employed over a temperature range from 20° C. to 600° C.

CN(C)c1nc(Cc2ccc(NC(=O)c3ccc(C(F)(F)F)cc3)cc2)nc(N(C)C)c1CC(=O)O [Formula I, {4,6-bis(dimethylamino)-2-(4-(4-(trifluoro-methyl)benzamido)benzyl)pyrimidin-5-yl}acetic acid]
binding selectivity for CRTH2 versus DP1 (DP1): binds selectively to CRTH2
binding affinity for CRTH2 (CRTH2): high affinity
solubility ([1]; organic solvent or mixture, thermodynamic from solid, 1,4-Dioxane, 25° C., read-out: Solubility): 3.37 mg/mL
solubility ([1]; organic solvent or mixture, thermodynamic from solid, 1,4-Dioxane, 50° C., read-out: Solubility): 9.83 mg/mL
solubility ([1]; organic solvent or mixture, thermodynamic from solid, 1-Propanol, 25° C., read-out: Solubility): 0.79 mg/mL
solubility ([1]; organic solvent or mixture, thermodynamic from solid, 1-Propanol, 50° C., read-out: Solubility): 2.41 mg/mL
solubility ([1]; organic solvent or mixture, thermodynamic from solid, 2-Methoxyethanol, 25° C., read-out: Solubility): 5.35 mg/mL
solubility ([1]; organic solvent or mixture, thermodynamic from solid, 2-Methoxyethanol, 50° C., read-out: Solubility): 8.55 mg/mL
solubility ([1]; organic solvent or mixture, thermodynamic from solid, Acetone, 25° C., read-out: Solubility): 2.62 mg/mL
solubility ([1]; organic solvent or mixture, thermodynamic from solid, Acetone, 50° C., read-out: Solubility): 3.34 mg/mL
solubility ([1]; organic solvent or mixture, thermodynamic from solid, DMSO, 25° C., read-out: Solubility): > 50 mg/mL
solubility ([1]; organic solvent or mixture, thermodynamic from solid, DMSO, 50° C., read-out: Solubility): > 50 mg/mL
solubility ([1]; organic solvent or mixture, thermodynamic from solid, Ethanol, 25° C., read-out: Solubility): 1.09 mg/mL
solubility ([1]; organic solvent or mixture, thermodynamic from solid, Ethanol, 50° C., read-out: Solubility): 2.25 mg/mL
solubility ([1]; organic solvent or mixture, thermodynamic from solid, Ethyl acetate, 25° C., read-out: Solubility): 0.53 mg/mL
solubility ([1]; organic solvent or mixture, thermodynamic from solid, Ethyl acetate, 50° C., read-out: Solubility): 1.27 mg/mL
solubility ([1]; organic solvent or mixture, thermodynamic from solid, Ethyl formate, 25° C., read-out: Solubility): 0.39 mg/mL
solubility ([1]; organic solvent or mixture, thermodynamic from solid, Ethyl formate, 50° C., read-out: Solubility): 1.51 mg/mL
solubility ([1]; organic solvent or mixture, thermodynamic from solid, Isobutyl acetate, 25° C., read-out: Solubility): 0.2 mg/mL
solubility ([1]; organic solvent or mixture, thermodynamic from solid, Isobutyl acetate, 50° C., read-out: Solubility): 0.83 mg/mL
solubility ([1]; organic solvent or mixture, thermodynamic from solid, Isopropanol, 25° C., read-out: Solubility): 0.77 mg/mL
solubility ([1]; organic solvent or mixture, thermodynamic from solid, Isopropanol, 50° C., read-out: Solubility): 1.96 mg/mL
solubility ([1]; organic solvent or mixture, thermodynamic from solid, Isopropyl acetate, 25° C., read-out: Solubility): 0.27 mg/mL
solubility ([1]; organic solvent or mixture, thermodynamic from solid, Isopropyl acetate, 50° C., read-out: Solubility): 0.78 mg/mL
solubility ([1]; organic solvent or mixture, thermodynamic from solid, MIBK, 25° C., read-out: Solubility): 0.54 mg/mL
solubility ([1]; organic solvent or mixture, thermodynamic from solid, MIBK, 50° C., read-out: Solubility): 1.8 mg/mL
solubility ([1]; organic solvent or mixture, thermodynamic from solid, MTBE, 25° C., read-out: Solubility): 0.09 mg/mL
solubility ([1]; organic solvent or mixture, thermodynamic from solid, MTBE, 50° C., read-out: Solubility): 0.41 mg/mL
solubility ([1]; organic solvent or mixture, thermodynamic from solid, Methanol, 25° C., read-out: Solubility): 2.23 mg/mL
solubility ([1]; organic solvent or mixture, thermodynamic from solid, Methanol, 50° C., read-out: Solubility): 3.04 mg/mL
solubility ([1]; organic solvent or mixture, thermodynamic from solid, Toluene, 50° C., read-out: Solubility): 0.03 mg/mL
solubility ([1]; organic solvent or mixture, thermodynamic from solid, n-Butanol, 25° C., read-out: Solubility): 0.79 mg/mL
solubility ([1]; organic solvent or mixture, thermodynamic from solid, n-Butanol, 50° C., read-out: Solubility): 2.11 mg/mL
solubility ([1]; saturated solution in DMF, organic solvent or mixture, thermodynamic from solid, DMF, 25° C., read-out: Solubility): > 50 mg/mL
solubility ([1]; saturated solution in DMF, organic solvent or mixture, thermodynamic from solid, DMF, 50° C., read-out: Solubility): > 50 mg/mL
solubility ([1]; saturated solution in MEK, organic solvent or mixture, thermodynamic from solid, MEK, 25° C., read-out: Solubility): 1.98 mg/mL
solubility ([1]; saturated solution in MEK, organic solvent or mixture, thermodynamic from solid, MEK, 50° C., read-out: Solubility): 4.26 mg/mL
solubility ([1]; saturated solution in THF, organic solvent or mixture, thermodynamic from solid, THF, 25° C., read-out: Solubility): 11.3 mg/mL
solubility ([1]; saturated solution in THF, organic solvent or mixture, thermodynamic from solid, THF, 50° C., read-out: Solubility): 32.7 mg/mL
solubility ([1]; saturated solution in acetonitrile, organic solvent or mixture, thermodynamic from solid, Acetonitrile, 25° C., read-out: Solubility): 0.24 mg/mL
solubility ([1]; saturated solution in acetonitrile, organic solvent or mixture, thermodynamic from solid, Acetonitrile, 50° C., read-out: Solubility): 0.94 mg/mL
solubility ([1]; saturated solution in chloroform, organic solvent or mixture, thermodynamic from solid, Chloroform, 25° C., read-out: Solubility): 0.17 mg/mL
solubility ([1]; saturated solution in chloroform, organic solvent or mixture, thermodynamic from solid, Chloroform, 50° C., read-out: Solubility): 0.35 mg/mL
solubility ([1]; saturated solution in dichloromethane, organic solvent or mixture, thermodynamic from solid, Dichloromethane, 25° C., read-out: Solubility): 0.07 mg/mL
solubility ([1]; thermodynamic from solid, Water, 50° C., read-out: Solubility): 0.02 mg/mL

CN(C)c1nc(Cc2ccc(NC(=O)c3ccc(C(F)(F)F)cc3)cc2)nc(N(C)C)c1CC(=O)O [Form I, {4,6-bis(dimethylamino)-2-(4-(4-(trifluoromethyl)benzamido)benzyl)pyrimidin-5-yl}acetic acid]
decomposition temperature (no significant weight loss until decomposition) [2]: around 200 °C
solubility ([1]; water, at room temperature, read-out: aqueous solubility): ~0.003 mg/mL (≈ 5.98 µM)
